In patent publication US12617773B2, “Azetidin-3-ylmethanol derivatives as CCR6 receptor modulators” (Idorsia Pharmaceuticals Ltd, priority 2020, dated 2026) one finds IC50 data, which are given here for 24 compounds.

The target in the experiment is T1, human CCR6 (Homo sapiens, UniProt P51684).
T1 construct: expressed in transfected cells; host or cells: HEK-293
T1 sequence (P51684 1-374): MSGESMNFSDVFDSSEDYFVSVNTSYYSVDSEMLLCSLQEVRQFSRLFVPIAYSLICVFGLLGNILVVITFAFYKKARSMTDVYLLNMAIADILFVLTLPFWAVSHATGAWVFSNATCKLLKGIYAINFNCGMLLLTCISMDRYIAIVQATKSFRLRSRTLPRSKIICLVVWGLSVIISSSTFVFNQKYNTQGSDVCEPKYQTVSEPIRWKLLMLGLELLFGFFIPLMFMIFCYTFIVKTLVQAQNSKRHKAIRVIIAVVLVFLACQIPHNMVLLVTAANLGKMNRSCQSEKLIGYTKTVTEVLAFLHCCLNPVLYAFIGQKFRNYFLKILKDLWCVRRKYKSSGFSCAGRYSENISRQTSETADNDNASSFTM
Nature of the experiment: FLIPR assay (inhibition of CCL20-induced calcium signal). It is filed as cell-based. The note with it: HEK-293 cells expressing human CCR6; mean values where determined several times; read-out: FLIPR IC50. The method, boiled down: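 IC50 values come from baseline-corrected peak calcium fluorescence after agonist. The agonist was CCL20 at 10 nM final, added to engineered human CCR6 HEK-293 cells following a 30-min, room-temperature, dark preincubation with serially diluted compound. Readings were taken in a fluorometric imaging plate reader.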
What is called IC50 is the concentration at which inhibition is half-maximal. As to `CC(=O)N1CCC(c2noc(-c3cncc([C@@](O)(c4ccc(C(C)C)cc4)C4(C)CN(C)C4)c3)n2)CC1` [Example 342], the IC50 was 154 nM.
For `[2H]C([2H])([2H])C(=O)N1CC(c2nc(-c3cncc([C@@](O)(c4ccc(C(C)C)cc4)C4(C)CN(C)C4)c3)no2)C1` [Example 343] the value was 532 nM; for `[2H]C([2H])([2H])C(=O)N1CC(C)(c2nc(-c3cncc([C@@](O)(c4ccc(C(C)C)cc4)C4(C)CN(C)C4)c3)no2)C1` [Example 344], 441 nM; for `[2H]C([2H])([2H])C(=O)N1CC(F)(c2nc(-c3cncc([C@@](O)(c4ccc(C(C)C)cc4)C4(C)CN(C)C4)c3)no2)C1` [Example 345], 252 nM.
For `CC(C)c1ccc([C@](O)(c2cncc(-c3noc(C(C)(C)N4CCOCC4)n3)c2)C2(C)CN(C)C2)cc1` [Example 346], the IC50 stood at 62.5 nM.
`CC(C)c1ccc([C@](O)(c2cncc(-c3noc(C4CCN(C)C(=O)C4)n3)c2)C2(C)CN(C)C2)cc1` (stereo partly drawn) [Example 347]: the concentration for half-maximal inhibition (IC50) is 120 nM.
Regarding `CC(=O)N1CC[C@H](c2nc(-c3cncc([C@@](O)(c4ccc(C(C)C)cc4)C4(C)CN(C)C4)c3)no2)C1` [Example 348], the IC50 came out at 135 nM.
For `CC(=O)N1CC[C@@H](c2nc(-c3cncc([C@@](O)(c4ccc(C(C)C)cc4)C4(C)CN(C)C4)c3)no2)C1` [Example 349] the value was 113 nM; for `CC(=O)NC(C)(C)c1nc(-c2cncc([C@@](O)(c3ccc(C(C)C)cc3)C3(C)CN(C)C3)c2)no1` [Example 350], 242 nM.
For `CC(C)c1ccc([C@](O)(c2cncc(-c3noc(C4CCN(Cc5ccccc5)C4=O)n3)c2)C2(C)CN(C)C2)cc1` (stereo partly drawn) [Example 351], the IC50 was 27.6 nM.
With `CC(C)c1ccc([C@](O)(c2cncc(-c3noc(C4(C)CCN(C)C4=O)n3)c2)C2(C)CN(C)C2)cc1` (stereo partly drawn) [Example 352], the IC50 was found to be 110 nM.
For the compound `CC(C)CN1CC(c2nc(-c3cncc([C@@](O)(c4ccc(C(C)C)cc4)C4(C)CN(C)C4)c3)no2)CC1=O` (stereo partly drawn) [Example 353], the IC50 stood at 40.3 nM.
For `CC(C)c1ccc([C@](O)(c2cncc(-c3noc(C4CC(=O)N(Cc5ccco5)C4)n3)c2)C2(C)CN(C)C2)cc1` (stereo partly drawn) [Example 354], the IC50 was 29 nM.
As to `CC(C)c1ccc([C@](O)(c2cncc(-c3noc(C4CC(=O)N(c5ccccc5)C4)n3)c2)C2(C)CN(C)C2)cc1` (stereo partly drawn) [Example 355], the IC50 came to 24.8 nM.
Consider `CC(C)c1ccc([C@](O)(c2cncc(-c3noc(C4CC(=O)N(Cc5ccccc5)C4)n3)c2)C2(C)CN(C)C2)cc1` (stereo partly drawn) [Example 356], for which the IC50 is 12.7 nM.
On to `CC(C)c1ccc([C@](O)(c2cncc(-c3noc(C4CCC(=O)N4c4ccccc4)n3)c2)C2(C)CN(C)C2)cc1` (stereo partly drawn) [Example 357], for which the IC50 is 26.1 nM.
For `CC(C)c1ccc([C@](O)(c2cncc(-c3noc(C4CNC(=O)C4)n3)c2)C2(C)CN(C)C2)cc1` (stereo partly drawn) [Example 358] the value was 131 nM; for `CC(C)c1ccc([C@](O)(c2cncc(-c3noc([C@@H]4CCC(=O)N4)n3)c2)C2(C)CN(C)C2)cc1` [Example 359], 234 nM.
For the compound `CC(C)c1ccc([C@](O)(c2cncc(-c3noc([C@H]4CCC(=O)N4)n3)c2)C2(C)CN(C)C2)cc1` [Example 360], the IC50 turned out to be 292 nM.
`CC(C)c1ccc([C@](O)(c2cncc(-c3noc([C@@H]4CCCC(=O)N4)n3)c2)C2(C)CN(C)C2)cc1` [Example 361]: the IC50 is 164 nM.
For `CC(C)c1ccc([C@](O)(c2cncc(-c3noc(C4CCNC(=O)C4)n3)c2)C2(C)CN(C)C2)cc1` (stereo partly drawn) [Example 362] the value was 90 nM; for `CC(C)c1ccc([C@](O)(c2cncc(-c3noc([C@@H]4CC(=O)N4)n3)c2)C2(C)CN(C)C2)cc1` [Example 363], 178 nM; for `CC(C)c1ccc([C@](O)(c2cncc(-c3noc([C@@H]4CNC4=O)n3)c2)C2(C)CN(C)C2)cc1` [Example 364], 142 nM.
For `CC(C)c1ccc([C@](O)(c2cncc(-c3noc(C4CCNCC4)n3)c2)C2(C)CN(C)C2)cc1` [Example 367], the IC50 came to 321 nM.
